Experimental data: patent US20100254940A1, “Compositions and Methods for Regulating an Immune Response in a Subject” (INNATE PHARMA, S.A., priority 2002, published 2010)

Legend:
[1] = Vital parameters, haematology and serum clinical chemistry follow up in cynomolgus monkeys (non-GLP studies); format: in vivo, cynomolgus monkeys (M. fascicularis)
Experimental: Classical blood parameters follow-up (red blood cell, platelets total and differential white blood cells counts, haemoglobin, mean corpuscular haemoglobin, mean corpuscular haemoglobin concentration) were performed at the sites of monkey handling, just before and after each administration and twice weekly.
On all animals in group 2, 48 or 72 hours after each injection, 16 blood chemistry parameters were measured (sodium, potassium, chloride, calcium, inorganic phosphorus, glucose, urea, total cholesterol, total bilirubin, total protein, albumin, globulin, creatinin, alkaline phosphatase, aspartate aminotransferase and […] aminotransferase).
The animals were observed daily and during and after each injection for any change in vital and clinical parameters (general behaviour, skin, hair, respiratory system, central nervous system). Animals were regularly weighed, every 3 days (group 1) or weekly (group 2). Body temperature (on vigil animals of group 2) was measured before and at the end of each BrHPP/IL2 (or IL2 alone) infusion and once daily during the 5 days following administration. Heart rate and blood pressure were recorded for all animals in group 2, before and at the end of each administration.

[2] = Two week repeated dose toxicity study in rats, i.v. BrHPP; format: in vivo, Sprague-Dawley rats
Experimental: The objective of this GLP study was to evaluate the potential toxicity of BrHPP following daily i.v. administration in rats for two weeks. 116 Sprague-Dawley rats were allocated into four groups: one control group (Group 1) with 10 males and 10 females and three treatment groups (Groups 2 to 4) with 10 males and 10 females. Group 2, 3 and 4 were administered respectively 80, 150 and 300 mg/kg/day (respectively 48, 90 and 180 mg/kg in anionic form equivalent) of BrHPP. […] Satellite animals were allocated for toxico-kinetics purposes.
BrHPP was administered daily by slow intravenous injection (0.4 mL/min) as a solution in sterile water for injection and Ringer lactate at the dose levels of 80, 150 or 300 mg/kg/day. The control group received the vehicle (together with 1% sodium to reach an osmolarity similar to the high-dose group dosage forms) under the same experimental conditions. A constant dosage-volume of 5 mL/kg was used.
The animals were checked daily for mortality and clinical signs. Body weight and food consumption were recorded twice a week. Opthalmologic examination was performed before and at the end of the treatment period. Blood samples for determination of levels of BrHPP were taken from satellite animals on Day 1 and at the end of the treatment period. Vaginal lavage was performed in females during pre-treatment and at the end of the treatment period for monitoring of estrous cycle. Hematological, blood biochemical and urinalysis investigations were performed on all principal animals at the end of week 2. On completion of the study, all animals were killed and subjected to a macroscopic post mortem examination and specified organs were weighed and preserved. Microscopic examination was performed on selected tissues from animals of the control and the 300 mg/kg/day groups.

[3] = system: 786-0 cells lines; assay: Nod-SCID/tumor model, human PBMC stimulated in vivo with BrHPP; set-up: species or system Nod-SCID mice
Experimental: Preliminary studies to set up the Nod-SCID/tumor and to stimulate human MNC with BrHPP in the Nod-SCID were carried out as follows: • The following renal tumor cells lines purchased from the ATCC (786-0, Kaci1, G401 and G402) were used for the establishment of the model. 786-0 and Kaci-1 cells lines were renal clear cell carcinoma (RCC), G401 rhabdoid and G402 leimyeloblastoma.
8-12 weeks Nod-SCID mice were used as recipient of the cells lines.
Each mouse received, at the left flank's upper part, 2-5×10^6 cells by subcutaneous injection at day D0. The appearance and the growing of the tumors evolution were checked weekly.
The tumors appearance and development depend on the cell line and on the number of engrafted cells. For example, after the engraftment of 2×10^6 cells, 3 to 4 weeks were needed for the 786-O and Kac1-1, while 2 weeks were needed for the G401 and 402. • At day 0, mice were injected IP 50*10^6 PBMC (collected from healthy donor, etablissement français du sang), then stimulated (IP) 40 mg/kg BrHPP mixed with 1000 IU of IL2. At D5 and each every three days, mice were treated with 500 UI of IL2. Human γδ T cells were developed in the peritoneal cavity of Nod-SCID/human (hu) BrHPP treated mice.
Taking advantage of the tumoral development in the Nod-SCID mice and the in vivo stimulation of the human γδ T cells, the anti-tumoral effect of the γδ T cells was studied in vivo. The tumoral model was established by engrafting 2×10^6 of 786-0 cells lines, three weeks later, when the volume of the solid tumor reached more than >30 mm3 (calculated with the formula A^2×B/2 where A and B represent respectively the length and breadth of the tumor). Mice, randomized, received IP PBMC and treated for the stimulation with BrHPP. Several groups were constituted:
A—Negative control group: Mice in the group received only tumoral cell line
B—PBMC group: Mice were injected IP with 50×10^6 PBMC
C—Study group: Mice after receiving the 50×10^6 PBMC were treated with BrHPP and
For each group, parameters were observed as follows: • Weekly check of the tumor size and volume • Weekly phenotype of human T cells in the peritoneal cavity and blood collected cells for the percentage of human γδ T cells versus ab human T cells. • Serological TNF and INF check • At sacrifice: • 1—phenotype study of the homing of human leukocytes cells and their phenotype (IP, liver, lung, spleen, bone morrow, blood, thymus and tumor). • 2—Immunohistochemistry (IHC) study in the tumor of the recipient mice.

For “3-(bromomethyl)-3-butanol-1-yl-diphosphate [BrHPP]”, the “clinical or blood chemical parameters” value ([1]; BrHPP alone or in association with IL2) was “No alteration of clinical or blood chemical parameters”, the rectal temperature ([1]; any animal treated) was “not significantly affected” and the “toxicity as assessed by vital signs or rectal temperature” value ([1]; five daily injection of 0.2 mg/kg BrHPP alone) was “did not result in any toxicity”. For the same substance, the “toxicity, fever” value ([1]; four daily injections 1, 4, 16, 32 mg/kg BrHPP alone) was “no toxicity nor fever was observed”, the lymphocytes ([1]; highest dose of BrHPP, at peak of Vg9Vd2 in the periphery) was “a lymphocytosis was observed” and the “microscopic examination, other organs and tissues” value ([2]; 300 mg/kg/day) was “No relevant findings were seen in other organs and tissues”. For the same substance, the opthalmologic findings ([2]; 300 mg/kg/day, end of treatment) was “No relevant opthalmologic findings”, the mortality ([2]; 80, 150, 300 mg/kg/day i.v. two weeks) was “No unscheduled death occurred” and the “clinical signs during dosing” value ([2]; 150 and 300 mg/kg/day) was “Vocalization during dosing was noted on many occasions”. For the same substance, the “microscopic examination, tail vein” value ([2]; both control and BrHPP-treated, attributed to mechanical injury) was “slight changes were observed in the tail vein”, the macroscopic post-mortem examination ([2]; end of treatment) was “No relevant findings were noted” and the organ weights ([2]; end of treatment) was “No relevant differences in organ weights from controls”. For the same substance, the “hematological, biochemical or urinary parameter” value ([2]; end of week 2) was “No changes of toxicological significance”, the “mean body weight gain” value ([2]; females) was “Dose-related higher mean body weight gain” and the “NOAEL in anionic form equivalent” value ([2]; highest tested dose) was 180 mg/kg. The “No Observed Adverse Effect Level (NOAEL)” value ([2]; highest tested dose) was 300 mg/kg/day, the “mice in which the tumor was not totally cleared” value ([3]; PBMC + BrHPP + IL2) was 4 of 10 and the tumor size ([3]; PBMC/BrHPP (40 mg/kg IP) and IL2 treated group) was “from day 7 onwards the tumor size shrank”. For the same substance, the “tumor growth where tumor not totally cleared” value ([3]; after 12 weeks) was “tumor growth was stopped and the tumor size stayed stable”, the “human γδ cells in the tumor” value ([3]; at sacrifice, 4 weeks) was “human γδ cells were present only in the BrHPP treated group” and the reappearance of tumor ([3]; mice where the tumor was cleared, 12 weeks after the treatment) was “no reappearance of new tumor was observed”. The “human γδ T cell presence in the peritoneal cavity” value ([3]; weekly IP phenotype) was “human γδ T cell presence only in the BrHPP treated mice”.
